The record followed here is publication PMC9865193, “Improvement of the Chemical Reactivity of Michael Acceptor of Ethacrynic Acid Correlates with Antiproliferative Activities” (Molecules, 2023).

As usually defined, the IC50 is the concentration that inhibits the measured activity by half.

For assay [1], the system named is HL60 cells. Kind of assay: MTS cell growth inhibition assay, HL60. It counts as cell-based, human. The settings on record: for IC50: Homo sapiens, HL-60, read-out: IC50 antiproliferative activity against HL60; for Selectivity index (SI) MRC5/HL60: ratio of IC50 MRC5/IC50 HL60. From the text: Based on a multiple target assay, all the prepared compounds (6–10) were first evaluated against HL60 leukemia cells to assess their in vitro antiproliferative activities. As mentioned in the Table 1, the obtained results were expressed as half-maximal inhibitory concentration (IC50) values with the average of at least three independent experiments and are compared to EA.
(§1) All cancer cell lines (HCT116, A549, MCF7, PC3, U87-MG, SKOV3, and MRC5) were obtained from the European Collection of Cell Culture (ECACC, Salisbury, UK) or from the American Type Culture Collection (Rockville, MD, USA) and were cultured according to the supplier’s instructions. Human HCT-116 colorectal carcinoma, MCF7 breast adenocarcinoma, PC3 prostate adenocarcinoma, A549 lung carcinoma, and SK-OV-3 ovary carcinoma were grown in Gibco McCoy’s 5A supplemented with 10% fetal calf serum (FCS) and 1% glutamine. HL60 myelogenous leukemia cells were grown in RPMI 1640 supplemented with 10% fetal calf serum (FCS) and 1% glutamine. U87-MG glioblastoma and human MRC-5 cells were grown in Gibco medium DMEM supplemented with 10% fetal calf serum (FCS) and 1% glutamine. Cells were maintained at 37 °C in a humidified atmosphere containing 5% CO2. Cell growth inhibition was determined by an MTS assay according to the manufacturer’s instructions (Promega, Madison, WI, USA). Briefly, the cells were seeded in 96-well plates (2.5 × 10^3 cells/well) containing 100 μL of growth medium. After 24 h of culture, the cells were treated with the tested compounds at 10 different final concentrations. After incubation for 72 h, 20 µL of Cell Titer 96®AQueous. One Solution Reagent was added for 2 h before recording absorbance at 490nm with a spectrophotometric plate reader. The concentration–response curves were generated with Graph Prism software and the 50% inhibition concentration values (IC50) were calculated from polynomial curves (four or five-parameter logistic equations).

The subject of assay [2] is A549 cells. Kind of assay: MTS cell growth inhibition assay, A549. Particulars: for IC50: Homo sapiens, A549, 72 h of exposure, read-out: IC50 antiproliferative activity A549; for Selectivity index (SI) MRC5/A549: ratio of IC50 MRC5/IC50 A549. It counts as cell-based, human. On the procedure:
(§2) Moreover, in order to evaluate the safety index, their effect on the proliferation of human lung fibroblasts (MCR5) as a normal cell line was also studied.
(§3) All cancer cell lines (HCT116, A549, MCF7, PC3, U87-MG, SKOV3, and MRC5) were obtained from the European Collection of Cell Culture (ECACC, Salisbury, UK) or from the American Type Culture Collection (Rockville, MD, USA) and were cultured according to the supplier’s instructions. […] U87-MG glioblastoma and human MRC-5 cells were grown in Gibco medium DMEM supplemented with 10% fetal calf serum (FCS) and 1% glutamine. Cells were maintained at 37 °C in a humidified atmosphere containing 5% CO2. Cell growth inhibition was determined by an MTS assay according to the manufacturer’s instructions (Promega, Madison, WI, USA). Briefly, the cells were seeded in 96-well plates (2.5 × 10^3 cells/well) containing 100 μL of growth medium. After 24 h of culture, the cells were treated with the tested compounds at 10 different final concentrations. After incubation for 72 h, 20 µL of Cell Titer 96®AQueous. One Solution Reagent was added for 2 h before recording absorbance at 490nm with a spectrophotometric plate reader.

Assay [3] has as its system MCF7 cells. Nature of the assay: MTS cell growth inhibition assay, MCF7. It counts as cell-based, human. Particulars: for IC50: Homo sapiens, MCF7, 72 h of exposure, read-out: IC50 antiproliferative activity MCF7; for Selectivity index (SI) MRC5/MCF7: ratio of IC50 MRC5/IC50 MCF7. On the procedure: as §2, §3
The subject of assay [4] is PC3 cells. Nature of the assay: MTS cell growth inhibition assay, PC3. The settings on record: for IC50: Homo sapiens, PC-3, PC3, 72 h of exposure, read-out: IC50 antiproliferative activity PC3; for Selectivity index (SI) MRC5/PC3: ratio of IC50 MRC5/IC50 PC3. Format: cell-based, human. On the procedure:
as §2, §1

The subject of assay [5] is U87-MG cells. Kind of assay: MTS cell growth inhibition assay, U87-MG. Format: cell-based, human. The settings on record: for IC50: Homo sapiens, U-87 MG, U87-MG, 72 h of exposure, read-out: IC50 antiproliferative activity U87-MG; for Selectivity index (SI) MRC5/U87-MG: ratio of IC50 MRC5/IC50 U87-MG. On the procedure: as §2, §3
The subject of assay [6] is SKOV3 cells. Nature of the assay: MTS cell growth inhibition assay, SKOV3. The settings on record: for IC50: Homo sapiens, SK-OV-3, SKOV3, 72 h of exposure, read-out: IC50 antiproliferative activity SKOV3; for Selectivity index (SI) MRC5/SKOV3: ratio of IC50 MRC5/IC50 SKOV3. It counts as cell-based, human. The method, then:
as §2, §1

For assay [7], the system named is HCT116 cells. Nature of the assay: MTS cell growth inhibition assay, HCT116. It counts as cell-based, human. The settings on record: for IC50: Homo sapiens, HCT-116, HCT116, 72 h of exposure, read-out: IC50 antiproliferative activity HCT116; for Selectivity index (SI) MRC5/HCT116: ratio of IC50 MRC5/IC50 HCT116. On the procedure:
as §2, §3

In assay [8] the test system is MRC5 cells. Kind of assay: MTS cell growth inhibition assay, normal cell line MRC5. Format: cell-based. The settings on record: MRC5 normal human lung fibroblasts, 72 h of exposure; read-out: IC50 antiproliferative activity MRC5. The method, then:
as §2, §1

Some results are limits rather than exact numbers.

In the case of `C#CCOc1ccc(C(=O)C(=C)CC)c(O)c1` [Compound 8, 1-(2-Hydroxy-4-(prop-2-yn-1-yloxy)phenyl)-2-methylenebutan-1-one], the IC50 amounted to 15 ± 6 nM in assay [1] (HL60 leukemia cells, 72 h, MTS); 41.2 ± 1.88 nM in assay [2]; 61.5 ± 0.9 nM in assay [3]; 68.7 ± 3.7 nM in assay [4]; 369 ± 50.1 nM in assay [5]; 138 ± 53.8 nM in assay [6]. Besides, the figures for the IC50 in assay [7] and in assay [8] were 1260 ± 80 nM and 350 ± 40 nM, respectively. Further, the “Selectivity index (SI) MRC5/HL60” value in assay [1] turned out to be 23.33. Moreover, the “Selectivity index (SI) MRC5/A549” value in assay [2] is 8.49. Also, the “Selectivity index (SI) MRC5/MCF7” value in assay [3] amounted to 5.69. Besides, in assay [4], the “Selectivity index (SI) MRC5/PC3” value was found to be 5.09. In assay [5], the “Selectivity index (SI) MRC5/U87-MG” value is 0.94. In addition, the “Selectivity index (SI) MRC5/SKOV3” value in assay [6] worked out at 2.53. Besides, the “Selectivity index (SI) MRC5/HCT116” value in assay [7] is 0.27.
As to `COc1cccc2c1C(=O)c1c(O)c3c(c(O)c1C2=O)C[C@@](O)(C(=O)CO)C[C@@H]3O[C@H]1C[C@H](N)[C@H](O)[C@H](C)O1` [Doxorubicin, doxorubicin, reference compound], the IC50 in assay [2] is 56.6 ± 0.84 nM; in assay [3] it was 120 ± 9 nM; in assay [4], 2.09 ± 0.03 nM; in assay [5], 99.6 ± 2.34 nM; in assay [7], 90 ± 3 nM; in assay [8], 39.9 ± 1.22 nM.
Turning to `C=C(CC)C(=O)c1ccc(OCC(=O)NCCCC)c(Cl)c1Cl` [Compound 9, N-Butyl-2-(2,3-dichloro-4-(2-methylenebutanoyl)phenoxy)acetamide], the “IC50 antiproliferative activity against HL60” value in assay [1] (HL60 leukemia cells, 72 h, MTS) was “inactive”.
As for `C#CCOc1ccc(C(=O)C(=C)CC)c(Cl)c1Cl` [Compound 10], the half-inhibitory concentration (IC50) in assay [1] (HL60 leukemia cells, 72 h, MTS) was determined as 580 ± 40 nM.
For the compound `C=C(CC)C(=O)c1ccc(OCC(=O)O)cc1O` [Compound 6, 2-(3-Hydroxy-4-(2-methylenebutanoyl)phenoxy)acetic acid], the IC50 in assay [1] (HL60 leukemia cells, 72 h, MTS) was more than 10000 nM.
With `C=C(CC)C(=O)c1ccc(OCC(=O)NCCCC)cc1O` [Compound 7, N-Butyl-2-(3-hydroxy-4-(2-methylenebutanoyl)phenoxy)acetamide], the IC50 was found to be 1700 ± 520 nM in assay [1] (HL60 leukemia cells, 72 h, MTS); 285 ± 67.8 nM in assay [2]; 528 ± 16.9 nM in assay [3]; 485 ± 20.9 nM in assay [4]; 1610 ± 355 nM in assay [5]; 1510 ± 363 nM in assay [6]. For the same compound, the IC50 in assay [7] came to 920 ± 20 nM; in assay [8], 850 ± 110 nM. Moreover, the “Selectivity index (SI) MRC5/HL60” value in assay [1] was 0.50. Besides, in assay [2], the “Selectivity index (SI) MRC5/A549” value is on record as 2.98. For the same compound, in assay [3], the “Selectivity index (SI) MRC5/MCF7” value stood at 1.60. Moreover, the “Selectivity index (SI) MRC5/PC3” value in assay [4] was determined as 1.75. Further, in assay [5], the “Selectivity index (SI) MRC5/U87-MG” value is 0.52. In addition, in assay [6], the “Selectivity index (SI) MRC5/SKOV3” value came out at 0.56. Besides, the “Selectivity index (SI) MRC5/HCT116” value in assay [7] was found to be 0.93.
